Laboratory results from patent EP3925949A1, “AZIDO COMPOUNDS AND METHOD FOR MONITORING ACID CERAMIDASE ACTIVITY IN INTACT CELLS USING THEM” (Consejo Superior de Investigaciones Científicas (CSIC), priority 2020, dated 2021).

Columns and labels:
acid ceramidase (AC) [1] = molecular target: T1, acid ceramidase (AC) (Homo sapiens, UniProt Q13510); assay: Hydrolysis of RBM5-177 by lysates of AC overexpressing cells, UPLC-HRMS; assay type: biochemical; design: expressed in transfected cells; host or cells: A375/+Dox (overexpressing AC); conditions: lysates from A375/+Dox cells, 30 min
T1 sequence (Q13510 143-395 limits assumed): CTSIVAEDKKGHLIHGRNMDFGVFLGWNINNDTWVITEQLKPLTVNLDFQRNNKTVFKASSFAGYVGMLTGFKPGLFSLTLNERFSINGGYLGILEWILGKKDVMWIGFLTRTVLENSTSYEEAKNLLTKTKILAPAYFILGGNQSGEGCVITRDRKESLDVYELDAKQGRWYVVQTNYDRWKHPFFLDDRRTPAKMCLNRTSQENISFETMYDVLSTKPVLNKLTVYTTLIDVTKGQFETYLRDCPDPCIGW
T1 sequence (Q13510 22-142 limits assumed): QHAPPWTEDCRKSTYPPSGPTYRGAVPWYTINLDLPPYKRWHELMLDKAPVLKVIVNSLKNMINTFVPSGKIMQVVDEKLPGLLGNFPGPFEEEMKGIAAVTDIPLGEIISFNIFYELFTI
Procedure: Cells were suspended in the appropriate volume of a 0.25 M saccharose solution with the proteases inhibitors aprotinin (1 mg/ml), leupeptin (1 mg/mml) and PMSF (100 mM). The suspension was submitted to three cycles of a 5 s sonication (probe) at 10 watts/5 s resting on ice. The cell lysate was centrifuged at 600 g for 5 min. The supernatant was collected and protein concentration was determined as specified below.
Cells were seeded at 5 × 10^5 cells/mL into 6 well plates (1 mL/well) and were allowed to adhere for 24 h. Medium was replaced with fresh medium containing RBM5-177, RBM5-019 or RBM2-37 (5 µM final concentration). After 30 min, medium was removed; cells were washed with 400 µL PBS and harvested with 400 µL Trypsin-EDTA and 600 µL of medium. NC recombinant enzyme, […], MEF5 or microsomes from HeLa T-Rex ACER1-TET-ON and HeLa T-Rex […] activity buffer. Cell pellets were resuspended with 100 µL of H2O and mixed with 750 µL of methanol: chloroform, 2:1. Samples were heated at 48°C overnight and next day, 75 µL of 1 M KOH in methanol were added, followed by 2 h incubation at 37°C. Afterwards, the saponification was neutralised with 75 µL of 1 M acetic acid and solvent was removed using a Speed Vac Savant SPD131 DDA (Thermo Scientific). […]

acid ceramidase (AC) [2] = molecular target: T1, acid ceramidase (AC); assay: AC activity by flow cytometry with RBM5-177/CO-1 in intact cells; assay type: cell-based; design: expressed in transfected cells; host or cells: A375/+Dox and FD/AC (overexpressing AC); A375/-Dox and A549 (endogenous AC)
Procedure: Cells were seeded at 1 × 10^5 cells/mL into 6 well plates (1 mL/well) and were allowed to adhere for 24 h. Medium was replaced with fresh medium containing Soclac (5 µM final concentration) and incubated for 1 h. After this time, the medium was replaced with RBM5-177, RBM5-019 or RBM2-37 (5 µM final concentration) +/- Soclac and incubated for 20 min. In the experiments with DM120, the compound, Soclac and RBM5-177 were incubated together for 4 h. After probes incubation, the medium was replaced with fresh medium containing CO-1 (1 µM final concentration), and cells were incubated for 10 min. Then cells were washed 3 times with DMEM for 5 min at 37 °C, and finally washed with 400 µL PBS and harvested with 400 µL Trypsin-EDTA and 600 µL of medium. Pellets were resuspended with 200 µL of PBS and stained cells were analyzed by using a Guava EasyCyte™ flow cytometer (Merck Millipore, Billerica, MA) measuring green fluorescence (488/525 nm). Data analysis was performed using the Multicycle AV program (Phoenix Flow Systems, San Diego, CA).

acid ceramidase (AC) [3] = molecular target: T1, acid ceramidase (AC); assay: AC activity-dependence of labelling (fluorescence confocal microscopy); assay type: cell-based; design: expressed in transfected cells; host or cells: FD/AC (overexpressing AC); conditions: FD/AC cells, SOCLAC 5 µM 1 h pretreatment, RBM5-177 5 µM 4 h
Procedure: Cells were seeded at 1 × 10^5 cells/mL on glass-bottom plates and allowed to adhere for 24 h. For golgi staining, cells were incubated with 40 µL/well of CellLight Golgi-RFP BacMam 2.0 for 24 h. […] After this time, the medium was replaced with fresh medium containing CO-1 (1 µM final concentration), and cells were incubated for 10 min. Then cells were washed 3 times with DMEM for 5 min at 37 °C, 75 nM LysoTracker Red DND-99 or 75 nM Mitotracker in phenol red-free DMEM was added to stain lysosomes or mitochondria, and cells were kept in the incubator for microscope analysis. Staining was viewed with a Zeiss LSM 880 confocal microscope or Leica TCS SP8-Hyvolution. Image analysis was performed using Fiji software.^[7] To measure the Manders's and Pearson's coefficients a threshold including organelles and discarding the background was set. Co-localization coefficients were measured using the JaCoP plugin (S. Bolte et al. J. Microsc. 2006, 224, 213-232) on the different stacks of images (at least n=4) with each stack containing 3-10 cells.

Row | SMILES | RBM5-19 formation (hydrolysis as substrate) (acid ceramidase (AC) [1]; RBM5-177 5 µM) | increase in the number of fluorescent counts over FD (acid ceramidase (AC) [2]; FD/AC cells versus AC deficient FD cells, RBM5-177 5 µM 4 h, CO-1) | effect on lysosome labelling by RBM5-177/CO-1 (acid ceramidase (AC) [3]) | inhibition of the formation of RBM5-19 from RBM5-177 (acid ceramidase (AC) [1]; SOCLAC 5 µM, 1 h, then RBM5-177 5 µM) | effect on number of fluorescent counts (acid ceramidase (AC) [2]; A375 cells, SOCLAC 5 µM 1 h pre-incubation (Fig. 5A, 5D)) | effect on number of labelled cells (acid ceramidase (AC) [2]; A549 cell line, SOCLAC 5 µM 1 h (Fig. 5B, 5E)) | effect on number of labelled cells (acid ceramidase (AC) [2]; FD/AC cells, SOCLAC 5 µM 1 h preincubation (Fig. 5C))
1 | CCCCCCCC(=O)N[C@@H](C)[C@H](O)CCCCCCCCCCCCN=[N+]=[N-] [RBM5-177, N-((2S,3R)-15-azido-3-hydroxypentadecan-2-yl)octanamide] | transformed into the free amine only by AC | 7 fold | – | – | – | – | –
2 | CCCCCCCCCCCCC/C=C/[C@@H](O)[C@H](CO)NC(=O)CCl [SOCLAC] | – | – | no lysosomal labelling occurred | totally prevented the formation of RBM5-19 from RBM5-177 | significantly decreased | significantly decreasing the number of labelled cells | reduced down to FD levels
